Where a name gives a salt, the structure may show the parent alone. Read-outs that look alike come from different tables or passages of the source.
What was measured:
[1] = system: primary murine PDAC cell line NUPR1 KO; experiment: Cell viability assay, primary murine PDAC cells, NUPR1 knocked-out (KO); type: cell-based, mouse; settings: 6 days
Method: (§1) MiaPaCa-2 cells were obtained from ATCC (Manassas, VA) and maintained in Dulbecco’s Modified Eagle’s Medium (DMEM) (Invitrogen, Carlsbad, CA) supplemented with 10% FBS (Foetal Bovine Serum) at 37 °C with 5% CO2. MiaPaCa-2 cells were authenticated using Short Tandem Repeat analysis (LGC Standards GmbH, Wesel, Germany). […]in reagent (Polyplus-transfection, Illkirch, France) was used to perform siRNA transfections according to the manufacturer’s protocol. Scrambled siRNA targeting no known gene sequence was used as negative control. The sequence of NUPR1-specific siRNA-nupr1 r([…])dTdT was previously reported. Knock-out cells were established in the laboratory from a mice model of pancreatic cancer, known as Pdx1-Cre-Kras^G12D/INK4^flox/flox and for those nupr1 was deleted. These cells have been supplied with DMEM (4.5 g/L) and Glutamax (Life Technologies, Carlsbad, CA), supplemented with 10% of FBS.

[2] = biological target: T1, NUPR1/MSL1 interaction (Homo sapiens, UniProt O60356); experiment: Proximity ligation assay (PLA) of NUPR1-MSL1 interaction after Oxaliplatin-induced DNA damage; type: cell-based; settings: 1 to 20 μM compound, Oxaliplatin 10 μM, 24 h
T1 construct: expressed in transfected cells; host or cells: MiaPaCa-2 (human pancreatic cancer cells)
T1 sequence (O60356 1-82): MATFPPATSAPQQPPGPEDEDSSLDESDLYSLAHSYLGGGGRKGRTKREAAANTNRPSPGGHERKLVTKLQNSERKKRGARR
Method: MiaPaCa-2 cells were seeded on coverslips and transfected with 300 ng of DNA (NUPR1-Flag and MSL1-V5) using Fugene HDTM transfection reagent (Roche, Meylan, France). […] Cells were washed twice in PBS, fixed, permeabilized and saturated for 45 min before immunostaining with DuoLink kit (Olink Bioscience, Uppsala, Sweden) following the manufacturer’s protocol. Image acquisition was carried out on a Nikon Eclipse 90i fluorescence microscope (Nikon Instruments, Amsterdam, Netherlands). Images at 40x magnification were analyzed with ImageJ to count the number of red dots which represent NUPR1/MSL1 binding. The reduction in the number of red fluorescent dots is proportional to the inhibition of MSL1-NUPR1 interaction by Compound-15.

[3] = system: primary murine PDAC cell line WT; experiment: Cell viability assay, primary murine PDAC cells, NUPR1 wild-type (WT); type: cell-based, mouse; settings: 6 days
Method: as §1

[4] = system: human PDAC-derived xenografts (MiaPaCa-2); experiment: Subcutaneous MiaPaCa-2 xenograft in NMRI-Nude mice; type: in vivo; settings: for Tumor volume: start 400 mm^3
Method: NMRI-Foxn1^nu/Foxn1^nu mice were provided by Janvier Laboratories (Le Genest-Saint-Isle, France). Mice were kept within the Experimental Animal House of the Centre de Cancérologie de Marseille (CRCM) pôle Luminy. All experimental protocols were carried out in accordance with nationally approved guidelines for the treatment of laboratory animals. All experimental procedures on animals were approved by the Comité d’éthique de Marseille numéro 14. Ten millions MiaPaCa-2 cells were inoculated subcutaneously and mice were separated into 3 groups of 6 subjects each. Mice were treated daily with either physiologic serum, 5 mg/kg or 10 mg/kg of the compound when the tumor volume reached approximately 400 mm^3. Every 5 days, the weight and the tumors volumes were measured. Mice were sacrificed after 35 days of treatment.

[5] = biological target: T2, NUPR1 (Homo sapiens, UniProt O60356); experiment: Isothermal titration calorimetry (ITC) of compound binding to NUPR1; settings: 25 °C; for Kd: 20 mM sodium phosphate pH 7, relative error is 20%
T2 construct: made in house; host or cells: E. coli
T2 sequence (O60356 1-82): T1 sequence (O60356 1-82)
Method: Ligand binding to NUPR1 was determined with a high sensitivity isothermal titration calorimeter Auto-iTC200 (MicroCal–Malvern Instruments, Malvern UK). Protein samples and reference solutions were properly degassed and carefully loaded into the calorimetric cells to avoid bubble formation during stirring. Experiments were performed with freshly prepared buffer-exchanged protein solutions, at 25 °C in 20 mM sodium phosphate pH 7. NUPR1 20 μM solution in the calorimetric cell was titrated with 300–400 μM compound solution. A sequence of 19 injections of 2 μL volume was programmed with a stirring speed of 1000 rpm. The heat evolved after each ligand injection was obtained from the integral of the calorimetric signal. The heat due to the binding reaction was obtained as the difference between the reaction heat and the corresponding heat of dilution, the latter estimated as a constant value throughout the experiment, and included as an adjustable parameter in the analysis. Control experiments (compound injected into buffer) were performed under the same experimental conditions. The association constant (Ka) and the enthalpy change (ΔH) of the binding reaction were obtained through non-linear regression of experimental data to a model for a protein with a single ligand binding site. Experiments were performed in replicates and data were analyzed using in-house developed software implemented in Origin 7 (OriginLab, Northampton, MA).

[6] = system: MiaPaCa-2 cells; experiment: Real-time iCELLigence impedance proliferation assay; type: cell-based, human; settings: 10 μM Compound-15 vs 60 nM Gemcitabine, 4 μM Oxaliplatin
Method: Cell proliferation was monitored in real-time using the […] system E-Plate (ACEA Biosciences, San Diego, CA). Forty thousand MiaPaCa-2 cells were seeded in each well with fresh DMEM. […] Cells were incubated for another 3 days. The impedance value of each well was automatically monitored by the […] system for 3 days and expressed as a CI (cell index) value.

[7] = system: MiaPaCa-2 cells; experiment: Colony formation in soft agar (clonogenicity); type: cell-based, human; settings: 10 μM compound
Method: Colony formation assay was performed in order to measure the in vitro survival ability of a single cell to grow into a colony in an anchorage-independent growth environment. Briefly, after treating MiaPaCa-2 cells with either the compounds or DMSO (as control) for 24 and 48 h, they were seeded in DMEM complete media at a density of 7 × 10^3 cells in 6-well plates containing a top layer of 0.7% agar and a bottom layer of 1% agar. Plates were incubated at 37 °C for 3 to 4 weeks and then stained with 0.2% crystal violet. […] Comparisons of treatment outcome were tested for statistical significance by using the t-test.

[8] = biological target: T2, NUPR1; experiment: 2D 1H-15N HSQC NMR cross-peak broadening of NUPR1 upon compound addition; type: binding; settings: NUPR1 100 μM : compound 400 μM, 25 °C, pH 4.5
Method: The NMR data were acquired at 25 °C, pH 4.5 (acetate buffer), on a Bruker Avance DRX-500 spectrometer equipped with a triple-resonance probe and z-gradients. All spectra were referenced to external TSP.
The 2D ^1H-^15N heteronuclear single-quantum coherence (HSQC) spectra[42] were acquired in the phase sensitive mode for isolated ^15N-labelled NUPR1 (100 μM) or ^15N-labelled NUPR1 (100 μM) in the presence of the corresponding compound (400 μM). […] Frequency discrimination in the indirect dimensions was achieved by using the echo/antiecho-TPPI method. […] The carrier of the ^1H dimension was set at 8.00 ppm, and that of ^15N at 120 ppm. The spectral widths used were 10 and 35 ppm in the ^1H and ^15N dimensions, respectively. Water signal was suppressed with the WATERGATE sequence. Data were zero-filled to double the number of original points in both dimensions, apodized with shifted squared sine-bell functions in the two dimensions and Fourier transformed with the program TopSpin 1.2. Assignments were taken from those previously reported. The intensity of the signals from each row in the HSQC spectra was measured by using TopSpin 2.1 taking into account, as an internal reference, the intensity of the last residue of NUPR1. Only differences in intensity of a particular residue between spectra of the complex (NUPR1:Compound) and that of isolated NUPR1 larger than 10%, were considered significant.

[9] = system: MiaPaCa-2 cells; experiment: Cell viability assay (CellTiter-Blue), MiaPaCa-2
Method: (§2) Cells (10000 cells/well) were plated in 96-well plates with DMEM. Twenty-four hours later, the media were supplemented with 10 μM of Compound and were incubated for another additional six days. Each experiment was performed in duplicate and repeated at least three times. Cell viability was estimated after addition of the CellTiter-Blue viability reagent (Promega, Madrid, Spain) for 1 h according to the protocol provided by the supplier. Cell viability was measured on day 6 and normalized regarding untreated cells rates. Statistical significance was assumed at a p-value lower than 0.05.

[10] = system: MiaPaCa-2 cells; experiment: Wound healing (cell migration) assay; type: cell-based, human; settings: 10 μM, after 48 h
Method: Cells (10000 cells/well) were seeded in 24-well plates and grown to confluence. […] Either fresh medium with 10 μM of the corresponding compound were added or DMSO (as control). Cell migration to the wounded region was observed using an automated fluorescence inverted microscope Leica DMI 6000B with MetaMorph MM AF analysis software (Leica Microsystems, Wetzlar, Germany). Images were captured at 0, 24 and 48 h to monitor the wound healing process. The wound areas were measured using ImageJ software (NIH, Bethesda, MD). Comparisons of treatment outcome were tested for statistical significance by using the t-test. Statistical significance was assumed at a p-value lower than 0.05.

[11] = system: MiaPaCa-2 cells; experiment: Chemograms of Gemcitabine or Oxaliplatin with or without Compound-15
Method: as §2

CN1CCN(CCCN2c3ccccc3Sc3ccc(C(F)(F)F)cc32)CC1 [Compound-15, Trifluoperazine dihydrochloride]
viability at 10 µM ([1]; Mus musculus, 144 h, NUPR1 KO murine cells): 72% | NUPR1-independent killing effect ([1]; from KO cell viability, 10 μM): ~28% | NUPR1 and MSL1 interaction (PLA red dots) [2]: interfered in the NUPR1-MSL1 interaction | viability at 10 µM ([3]; Mus musculus, 144 h, WT murine cells): 35% | NUPR1-dependent effect ([3]; difference WT vs KO viability, 10 μM): around 37% | Tumor volume increase compared to the control ([4]; 5 mg/kg daily, two weeks): 50% | Tumor volume ([4]; 5 mg/kg daily, two weeks): 767 ± 196 mm^3 | Tumor volume ([4]; 10 mg/kg daily, two weeks): 558 ± 152 mm^3 | Tumor growth ([4]; 10 mg/kg daily, up to 4 weeks): rapidly, and almost completely, stopped | Kd [5]: 5.2 µM | ΔG (Gibbs energy of binding) ([5]; pH 7): -7.2 kcal/mol | ΔH of binding ([5]; pH 7): -1.1 kcal/mol | −TΔS of binding ([5]; pH 7): -6.1 kcal/mol | Growth arrest in real-time proliferation compared with Oxaliplatin or Gemcitabine [6]: stronger growth-arrest | Colony formation [7]: completely inhibited colony formation | Residues of NUPR1 with NMR-cross-peak broadening affected by binding [8]: Ala33; Thr68 | viability at 10 µM ([9]; Homo sapiens, MIA PaCa-2, 144 h, read-out: Cell viability): 26 ± 7% | Distance migrated compared to Compound-free cells [10]: 25%

CC(C)N1CCN(c2ccc(OCC3COC(Cn4cncn4)(c4ccc(Cl)cc4Cl)O3)cc2)CC1 (stereo not shown) [Compound-11, Terconazole]
Residues of NUPR1 with NMR-cross-peak broadening affected by binding [8]: Thr68

O=C1[O][Pt]2([NH][C@@H]3CCCC[C@H]3[NH]2)[O]C1=O [Oxaliplatin]
Cell viability ([11]; 4 μM Oxaliplatin alone): 53 ± 0.4% | IC50 ([11]; drug alone, MiaPaCa-2, 3 days): 4000 nM | Cell viability ([9]; MiaPaCa-2, 10 μM of each compound, 6 days, normalized to untreated cells): 10 ± 2%

C[C@H](N)[C@H](O)c1ccc(O)c(O)c1 [Compound-8, Levonordefrin]
Kd [5]: 1.5 µM | Residues of NUPR1 with NMR-cross-peak broadening affected by binding [8]: Ala33; Thr68

CN(C)CCC(c1ccccc1)c1ccccn1 (stereo not shown) [compound 10, Pheniramine maleate]
Kd [5]: 4.3 µM | Residues of NUPR1 with NMR-cross-peak broadening affected by binding [8]: Ser9; His62; Thr68

O=C(O)/C=C/c1ccc(O)c(O)c1 [compound 3, Caffeic acid]
Kd [5]: 2 µM | Residues of NUPR1 with NMR-cross-peak broadening affected by binding [8]: Ala33; Thr68

COC(=O)[C@H]1[C@H]2C[C@@H]3c4[nH]c5cc(OC)ccc5c4CCN3C[C@H]2C[C@@H](OC(=O)c2cc(OC)c(OC)c(OC)c2)[C@@H]1OC [compound 4, Reserpine]
Kd [5]: 3.2 µM | Residues of NUPR1 with NMR-cross-peak broadening affected by binding [8]: Thr68

CC(C)(C)c1ccc(C(O)CCCN2CCC(C(O)(c3ccccc3)c3ccccc3)CC2)cc1 (stereo not shown) [Compound-1, Terfenadine]
Kd [5]: 5 µM

CC(C)(C)CC(C)(C)c1ccc(OCCOCC[N+](C)(C)Cc2ccccc2)cc1 [Compound-13, Benzethonium chloride]
Colony formation [7]: completely inhibited colony formation

CN(C)[C@@H]1C(O)=C(C(N)=O)C(=O)[C@@]2(O)C(O)=C3C(=O)c4c(O)ccc(Cl)c4[C@@](C)(O)[C@H]3C[C@@H]12 [compound 14, Chlortetracycline hydrochloride]
Kd [5]: 1.5 µM | Residues of NUPR1 with NMR-cross-peak broadening affected by binding [8]: Ala33; Thr68

OCCN1CCN(CCCN2c3ccccc3Sc3ccc(C(F)(F)F)cc32)CC1 [Compound-2, Fluphenazine dihydrochloride]
Kd [5]: 2 µM | Residues of NUPR1 with NMR-cross-peak broadening affected by binding [8]: Thr68

Fc1ccc(C(c2ccc(F)cc2)N2CCN(C/C=C/c3ccccc3)CC2)cc1 [Compound-6, Flunarizine dihydrochloride]
Kd [5]: 3.1 µM | Residues of NUPR1 with NMR-cross-peak broadening affected by binding [8]: Ala33; Thr68

CC(C)NCC(O)c1ccc(O)c(O)c1.Cl (single isomer, unassigned; (-)) [compound 5, (-)-Isoproterenol hydrochloride]
Kd [5]: 3.9 µM | Residues of NUPR1 with NMR-cross-peak broadening affected by binding [8]: Thr68

CC(C)NCC(O)c1ccc(O)c(O)c1.O=C(O)C(O)C(O)C(=O)O (single isomer, unassigned; (+)) [Compound-9, (+)-Isoproterenol (+)-bitartrate salt]
Kd [5]: 4 µM | Residues of NUPR1 with NMR-cross-peak broadening affected by binding [8]: Ser9; Ala10; Leu29; Ala33; Gly38; Thr68

CCCCN(CCCC)CCC(O)c1cc2c(Cl)cc(Cl)cc2c2cc(C(F)(F)F)ccc12 (stereo not shown) [Compound-7, Halofantrine hydrochloride]
Kd [5]: 3.3 µM | Residues of NUPR1 with NMR-cross-peak broadening affected by binding [8]: Thr68

Nc1ccn([C@@H]2O[C@H](CO)[C@@H](O)C2(F)F)c(=O)n1 [Gemcitabine]
IC50 ([11]; Homo sapiens, MIA PaCa-2, 72 h, read-out: IC50 (concentration reducing cell viability to one half)): 60 nM | viability at 0.06 µM ([11]; Homo sapiens, MIA PaCa-2, read-out: Cell viability): 41 ± 0.4%
